From patent publication US7390903B2, “Thieno-pyridine derivatives as allosteric enhancers of the GABAB receptors” (Hoffmann-La Roche Inc., priority 2004, dated 2008)

Experiments:
human GABABR1aR2a = target: T1, human GABABR1aR2a (Homo sapiens, UniProt O75899+Q9UBS5); test: Intracellular Ca2+ mobilization assay in CHO-GABABR1aR2a-Gα16 cell (FLIPR); format: cell-based; details: for GABA shift Log [EC50(GABA + 10 μM cp)/EC50(GABA alone)]: GABA 0.0003-30 μM in absence and presence of 10 μM enhancer; for Emax: enhancer 0.001-30 μM in the presence of 10 nM GABA (EC10), enhancer applied 15 min before GABA, read-out: Emax (%) at 10 nM GABA alone = 0% 10 μM GABA alone = 100%; for EC50: enhancer concentration-response (0.001-30 μM) in the presence of 10 nM GABA
T1 construct: expressed in transfected cells
Description: Intracellular Ca^2+ Mobilization Assay
The Chinese Hamster Ovary (CHO) cells stably expressing human GABABR1aR2a and Gα16 were seeded at 5×10^4 cells/well in the poly-D-lysine treated, 96-well, black/clear-bottomed plates (BD Biosciences, Palo Alto, Calif.). 24 h later, the cells were loaded for 90 min at 37° C. with 4 μM Flou-4 acetoxymethyl ester (Catalog No. F-14202, Molecular Probes, Eugene, Oreg.) in loading buffer (1×HBSS, 20 mM HEPES, 2.5 mM Probenecid). Hanks' Balanced Salt Solution (HBSS) (10×) (catalog No. 14065-049) and HEPES (1M) (catalog No. 15630-056) were purchased from Invitrogen, Carlsbad, Calif. Probenecid (250 mM) (catalog No. P8761) was from Sigma, Buchs, Switzerland. The cells were washed five times with loading buffer to remove excess dye and intracellular calcium mobilization, [Ca^2+]i were measured using a Fluorometric Imaging Plate Reader (FLIPR, Molecular Devices, Menlo Park, Calif.) as described previously (Porter et al., Br. J. Pharmacol., 128, 13-20, 1999). The enhancers were applied 15 min before the application of the GABA. For GABA shift assay, concentration-response curves of GABA (0.0003-30 μM) were determined in the absence and presence of 10 μM enhancer. The GABA-shift is defined as Log [EC50 (GABA+10 μM enhancer)/EC50 (GABA alone)]. The % maximum enhancing effect (% Emax) and potency (EC50 value) of each enhancer was determined from concentration-response curve of the enhancer (0.001-30 μM) in the presence of 10 nM GABA (EC10). Responses were measured as peak increase in fluorescence minus basal, normalized to the maximal stimulatory effect induced by 10 μM GABA alone (considered 100%) and 10 nM GABA alone (considered 0%). The data were fitted with the equation Y=100+(Max−100)/(1+(EC50/[drug])^n) where Max is the maximum effect, EC50 the concentration eliciting a half-maximum effect and n the Hill slope.

[1] = PO, cited from earlier work
[2] = passive avoidance behavioral test in mice and rats; cited from earlier work
[3] = cited from earlier work
[4] = rats; cited from earlier work
[5] = small group of veterans with chronic, combat-related PTSD; cited from earlier work
[6] = rat; cited from earlier work
[7] = panic disorder patients; Hamilton, Zung anxiety scales, Katz-R nervousness subscale; cited from earlier work
[8] = preclinical; cited from earlier work
GABABR1R2 = GABABR1R2 (Homo sapiens, UniProt O75899+Q9UBS5); details: cited from earlier work; for effect on their own at GABAB receptors: absence of GABA; for effect on potency and maximal efficacy of GABA: in concert with endogenous GABA, GABABR1R2
Chain of GABABR1R2 (Q9UBS5 20-961): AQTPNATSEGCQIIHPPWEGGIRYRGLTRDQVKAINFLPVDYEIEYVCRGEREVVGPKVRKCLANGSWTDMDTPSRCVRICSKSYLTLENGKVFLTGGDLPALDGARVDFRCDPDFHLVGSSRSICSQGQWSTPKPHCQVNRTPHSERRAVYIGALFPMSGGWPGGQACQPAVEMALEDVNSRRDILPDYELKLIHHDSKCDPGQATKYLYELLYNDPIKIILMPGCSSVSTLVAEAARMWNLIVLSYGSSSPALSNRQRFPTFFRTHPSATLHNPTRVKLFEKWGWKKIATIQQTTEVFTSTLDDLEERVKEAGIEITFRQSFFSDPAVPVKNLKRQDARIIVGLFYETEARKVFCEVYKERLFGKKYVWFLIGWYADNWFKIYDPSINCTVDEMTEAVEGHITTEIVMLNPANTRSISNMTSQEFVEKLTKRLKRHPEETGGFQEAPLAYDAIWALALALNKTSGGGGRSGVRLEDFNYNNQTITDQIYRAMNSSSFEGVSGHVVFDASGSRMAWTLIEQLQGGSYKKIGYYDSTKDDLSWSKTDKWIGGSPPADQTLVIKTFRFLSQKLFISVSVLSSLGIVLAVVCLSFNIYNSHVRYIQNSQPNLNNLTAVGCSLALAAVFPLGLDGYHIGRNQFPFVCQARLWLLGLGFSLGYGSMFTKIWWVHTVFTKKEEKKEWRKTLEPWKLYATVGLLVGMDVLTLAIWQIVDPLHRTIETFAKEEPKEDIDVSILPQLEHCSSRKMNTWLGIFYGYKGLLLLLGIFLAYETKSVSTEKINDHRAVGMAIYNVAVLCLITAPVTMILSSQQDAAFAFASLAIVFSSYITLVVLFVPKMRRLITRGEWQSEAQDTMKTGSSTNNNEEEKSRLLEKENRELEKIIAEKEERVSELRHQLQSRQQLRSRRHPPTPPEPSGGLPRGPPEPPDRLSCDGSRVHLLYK
Chain of GABABR1R2 (O75899 42-941): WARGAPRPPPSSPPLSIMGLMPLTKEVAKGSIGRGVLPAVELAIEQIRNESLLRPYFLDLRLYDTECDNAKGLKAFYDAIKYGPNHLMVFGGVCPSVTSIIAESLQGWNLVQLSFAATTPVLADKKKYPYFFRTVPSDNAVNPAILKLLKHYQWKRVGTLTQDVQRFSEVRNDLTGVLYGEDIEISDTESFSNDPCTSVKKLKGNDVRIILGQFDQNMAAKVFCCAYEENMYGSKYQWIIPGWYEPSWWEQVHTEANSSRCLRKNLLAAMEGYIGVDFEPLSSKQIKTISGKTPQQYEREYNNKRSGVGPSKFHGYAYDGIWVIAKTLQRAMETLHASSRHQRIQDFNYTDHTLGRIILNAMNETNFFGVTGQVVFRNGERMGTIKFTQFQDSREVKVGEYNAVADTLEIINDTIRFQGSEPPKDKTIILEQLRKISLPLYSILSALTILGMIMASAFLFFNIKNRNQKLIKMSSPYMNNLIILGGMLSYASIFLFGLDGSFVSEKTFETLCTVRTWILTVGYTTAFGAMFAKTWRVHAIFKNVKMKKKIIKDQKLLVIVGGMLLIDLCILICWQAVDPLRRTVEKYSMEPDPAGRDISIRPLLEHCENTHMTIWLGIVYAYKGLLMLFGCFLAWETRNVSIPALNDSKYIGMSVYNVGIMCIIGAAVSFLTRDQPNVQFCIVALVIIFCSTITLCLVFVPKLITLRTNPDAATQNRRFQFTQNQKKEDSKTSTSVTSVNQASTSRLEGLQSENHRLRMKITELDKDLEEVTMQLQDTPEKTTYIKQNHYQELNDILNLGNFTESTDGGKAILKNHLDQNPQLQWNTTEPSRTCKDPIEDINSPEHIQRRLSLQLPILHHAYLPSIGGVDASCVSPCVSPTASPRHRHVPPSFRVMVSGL

T1 sequence (Q9UBS5 15-961 limits assumed): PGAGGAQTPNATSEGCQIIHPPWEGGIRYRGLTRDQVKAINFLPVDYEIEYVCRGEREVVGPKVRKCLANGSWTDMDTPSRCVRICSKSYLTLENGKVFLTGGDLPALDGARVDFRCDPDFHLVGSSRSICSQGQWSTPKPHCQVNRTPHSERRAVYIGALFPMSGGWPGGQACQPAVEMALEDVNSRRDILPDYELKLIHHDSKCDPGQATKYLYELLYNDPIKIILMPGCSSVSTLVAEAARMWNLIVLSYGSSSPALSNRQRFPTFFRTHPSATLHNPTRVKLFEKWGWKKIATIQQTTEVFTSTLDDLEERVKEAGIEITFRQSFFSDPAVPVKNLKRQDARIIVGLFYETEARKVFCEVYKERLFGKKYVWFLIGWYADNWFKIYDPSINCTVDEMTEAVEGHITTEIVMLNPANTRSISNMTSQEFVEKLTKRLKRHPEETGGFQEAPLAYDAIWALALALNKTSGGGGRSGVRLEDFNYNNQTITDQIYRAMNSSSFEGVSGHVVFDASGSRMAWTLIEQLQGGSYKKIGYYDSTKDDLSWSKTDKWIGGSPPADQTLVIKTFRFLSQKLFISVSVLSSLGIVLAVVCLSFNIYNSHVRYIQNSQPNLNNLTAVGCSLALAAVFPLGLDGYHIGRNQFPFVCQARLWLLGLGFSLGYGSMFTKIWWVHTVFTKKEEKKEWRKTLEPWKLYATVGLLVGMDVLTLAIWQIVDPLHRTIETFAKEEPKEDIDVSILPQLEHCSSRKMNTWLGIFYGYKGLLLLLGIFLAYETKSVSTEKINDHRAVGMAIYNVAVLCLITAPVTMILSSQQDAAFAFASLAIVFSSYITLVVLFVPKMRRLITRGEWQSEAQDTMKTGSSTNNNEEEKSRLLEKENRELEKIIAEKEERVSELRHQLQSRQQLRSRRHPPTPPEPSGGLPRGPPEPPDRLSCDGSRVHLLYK
T1 sequence (O75899 42-941): as the sequence (O75899 42-941) above

Row | SMILES | GABA shift Log [EC50(GABA + 10 μM cp)/EC50(GABA alone)] (human GABABR1aR2a) | Emax (human GABABR1aR2a) [%] | EC50 (human GABABR1aR2a) [µM] | other results
1 | CC(=O)c1c(C)nc2sc3c(c2c1-c1ccco1)CCC3 [Example 18, 1-(4-Furan-2-yl-2-methyl-6,7-dihydro-5H-cyclopenta[4,5]thieno[2,3-b]pyridin-3-yl)-ethanone] | −1 | 58 | 0.86 | 
2 | COC(=O)N1CCc2c(sc3nc(C)c(C(C)=O)c(-c4ccccc4)c23)C1 [Example 38, 3-Acetyl-2-methyl-4-phenyl-5,8-dihydro-6H-9-thia-1,7-diaza-fluorene-7-carboxylic acid methyl ester] | −0.3 | 20 | 1.4 | 
3 | COC(=O)c1ccc(-c2c(C(=O)C3CC3)c(C)nc3sc4c(c23)CCCCC4)cc1 [Example 35, 4-(3-Cyclopropanecarbonyl-2-methyl-6,7,8,9-tetrahydro-H-10-thia-1-aza-benzo [a]azulen-4-yl)-benzoic acid methyl ester] | −0.91 | 56 | 1.2 | 
4 | Cc1nc2sc3c(c2c(-c2cccs2)c1C(=O)C(F)(F)F)CCC3 [Example 2, 2,2,2-Trifluoro-1-(2-methyl-4-thiophen-2-yl-6,7-dihydro-5H-cyclopenta[4,5]thieno[2,3-b]pyridin-3-yl)-ethanone] | −0.9 | 59 | 1.3 | 
5 | CSc1nc(NC2CCCC2)c([N+](=O)[O-])c(NC2CCCC2)n1 [GS39783, N,N_-dicyclopentyl-2-methylsulfanyl-5-nitro-pyrimidine-4,6-diamine] |  |  |  | effect on spontaneous locomotor activity, rotarod, body temperature and traction test ([1]; 0.1-200 mg/kg): had no effect; effect on cognition performance [2]: did not have any effect; tolerance after chronic treatment ([3]; 21 days, 10 mg/kg, P.O., once daily, light-dark box and elevated zero maze): No tolerance; anxiolytic-like effects ([3]; elevated plus maze (rat), elevated zero maze (mice and rats), stress-induced hyperthermia (mice)): exhibited anxiolytic-like effects; cocaine self-administration [4]: effective at deceasing cocaine self-administration
6 | Cc1nc2sc3c(c2c(-c2ccc(Cl)c(Cl)c2)c1C(=O)C(F)(F)F)CCC3 [Example 1, 1-[4-(3,4-Dichloro-phenyl)-2-methyl-6,7-dihydro-5H-cyclopenta[4,5]thieno[2,3-b]pyridin-3-yl]-2,2,2-trifluoro-ethanone] | −0.3 | 47 | 14.7 | 
7 | CC(=O)c1c(C)nc2sc3cnccc3c2c1-c1ccccc1 [Example 23, 1-(2-Methyl-4-phenyl-9-thia-1,7-diaza-fluoren-3-yl)-ethanone] | −0.6 | 35 | 1.3 | 
8 | NCC(CC(=O)O)c1ccc(Cl)cc1 (stereo not drawn) [Baclofen, β-chlorophenyl GABA] |  |  |  | treatment of PTSD [5]: effective and well-tolerated treatment; side effects (spontaneous locomotor activity, rotarod, body temperature, traction test) ([1]; 2.5-15 mg/kg): showed these side effects; reversal of reduction in prepulse inhibition (PPI) induced by dizocilpine [6]: able to reverse the reduction in prepulse inhibition; number of panic attacks and symptoms of anxiety [7]: significantly effective in reducing the number of panic attacks and symptoms of anxiety
9 | Cc1nc2sc(Cl)cc2c(-c2ccccc2)c1C(=O)C(F)(F)F [Example 21, 1-(2-Chloro-6-methyl-4-phenyl-thieno[2,3-b]pyridin-5-yl)-2,2,2-trifluoro-ethanone] | −1.1 | 66 | 1.9 | 
10 | Cc1nc2sc(C)c(C)c2c(-c2ccccc2)c1C(=O)C(F)(F)F [Example 16, 2,2,2-Trifluoro-1-(2,3,6-trimethyl-4-phenyl-thieno[2,3-b]pyridin-5-yl)-ethanone] | −0.9 | 69 | 2.4 | 
11 | CC(C)(CO)Cc1cc(C(C)(C)C)c(O)c(C(C)(C)C)c1 [CGP7930, 2,6-di-tert-butyl-4-(3-hydroxy-2,2-dimethyl-propyl)-phenol] |  |  |  | efficacy for treatment of GERD [8]: found to be effective; effect on their own at GABAB receptors (GABABR1R2): no effect on their own; effect on potency and maximal efficacy of GABA (GABABR1R2): increase both the potency and maximal efficacy of GABA; cocaine self-administration [4]: effective at deceasing cocaine self-administration
12 | CC(C)(C=O)Cc1cc(C(C)(C)C)c(O)c(C(C)(C)C)c1 [CGP13501] |  |  |  | effect on their own at GABAB receptors (GABABR1R2): no effect on their own; effect on potency and maximal efficacy of GABA (GABABR1R2): increase both the potency and maximal efficacy of GABA
